# Laboratory results reported in US10918645B2 (LIFEARC, priority 2016, dated 2021).
# Tests used:
# LRRK2 G2019S = LRRK2 G2019S (Homo sapiens (Human), UniProt Q5S007, G2019S); experiment: Adapta Kinase Assay (LRRK2_IC50 assay); assay type: biochemical; details: inhibition of LRRK2 G2019S
# Method: In Adapta™ Kinase Assay (LRRK2_IC50 assay): the Kinase Reaction Buffer contained 5× Kinase Buffer S (Life Technologies, PV5213) and 2 mM DTT (Life Technologies, P2325).
# The Adapta® universal kinase assay is a homogenous, fluorescent based immunoassay for the detection of ADP. In contrast to ATP depletion assays, the Adapta® assay is extremely sensitive to ADP formation such that a majority of the signal change occurs in the first 10-20% conversion of ATP to ADP. This makes the Adapta® universal kinase assay ideally suited for use with low activity kinases.
# Prepare a 1× solution of kinase reaction buffer from the 5× Kinase Buffer S stock (listed above) by adding 2 ml of 5× stock to 8 ml of H2O to make 10 ml of 1× kinase reaction buffer. To this, add 20 μl of 1 M DTT.
# Kinase reactions are performed in a 10 μl volume in low-volume 384-well plates. […] Other non—treated assay plates, while not tested, may also be suitable. The concentration of substrate in the assay is 100 μM, and the 1× kinase reaction buffer consists of 50 mM Tris-HCl pH8.5, 10 mM MgCl2, 1 mM EGTA, 0.01% Brij-35, and 2 mM DTT, plus any additional additives that may be required for a specific kinase. […] The plate is allowed to equilibrate at room temperature for at least 30 minutes before being read on a plate reader configured for Adapta™ TR-FRET.
# The data presented in this document were generated using a BMG LABTECH PHERAstar plate reader using the appropriate filters and instrument settings for Adapta™. The Test Compounds are screened in 1% DMSO (final) in the well. For 8 point titrations, 5-fold serial dilutions are conducted from the starting concentration.
# (§1) IC50 estimates were obtained using the software XLfit (IDBS Inc.).
# JAK2 = JAK2 (Homo sapiens (Human), UniProt O60674); experiment: LANCE Kinase Assay (JAK2_IC50 selectivity assay); assay type: biochemical
# Description: In LANCE® Kinase Assay (JAK2_IC50 selectivity assay): JAK2 (Invitrogen, Cat. No PV4288), ATP (Sigma, Cat. No. A7699-1G), DMSO (Sigma, Cat. No. D2650), DTT (Sigma, Cat. No. 43815), LANCE Ultra ULight™-JAK-1 peptide (Perkin Elmer, Cat. No. TRF0121), LANCE Eu-W1024 Anti-phosphotyrosine (PT66) (Perkin Elmer, Cat. No. AD0069), LANCE™ Detection Buffer (Perkin Elmer, Cat. No. CR97-100), Tofacitinib (PharmaBlock Sciences(Nanjing), Inc, Cat. No. PBN2011586-01); Equipments: Envision (Perkin Elmer), Bravo (Agilent); Consumables: 384 well Intermediate plate (Greiner, Cat. No. 781280), 384 well assay plate (Perkin Elmer, Cat. No. 6007299),
# The assay involves two steps, the enzymatic step and the detection step with HTRF reagents. Step 1: During the enzymatic step the substrate-biotin is incubated with the kinase of interest. ATP is added to start the reaction. Step 2: The detection reagent catches the phosphorylated substrate and the resulting TR-FRET is proportional to the phosphorylation level.
# Compound Preparation: Dissolve the test compounds into 30 mM DMSO solution and put them in nitrogen hood at room temperature for long term storage; Dilute the 30 mM compound in DMSO with 3-fold factor, total 11 concentrations; Aspirate 1 μl compound and then dilute them in 25 folds with kinase buffer. Mix well and balance 30 minutes at room temperature.
# Kinase Reaction: Transfer 2.5 μl compounds in kinase buffer (4×) into assay plate by Agilent Bravo. Spin the plate; Transfer 5 μl enzyme mixture into the assay plate by using Eppendorf electronic multi-channel pipette. Spin the plate; Incubate the assay plate for 20 minutes at room temperature (23° C.); Add 2.5 μl kinase buffer with ATP into the assay plate by using Multidrop. Spin and seal the plate; Incubate the assay plate for 90 minutes at room temperature (23° C.).
# Stop Reaction: Transfer 10 μl detection reagent (2 nM LANCE Eu-W1024 Anti-phosphotyrosine) into the assay plate by using Eppendorf electronic multi-channel pipette. Spin and seal the plate; Incubate the assay plate at room temperature (23° C.) for 60 minutes.
# Detection and Read: The excitation wavelength is 340 nm, the primary emission wavelength is 615 nm and the secondary emission wavelength is 665 nm (for Cryptate and Ulight, respectively). Read the plate with EnVision to get the readout of both wavelengths; Calculate the ratio of 665 nm/615 nm.
# as §1
# Sequence of LRRK2 G2019S (Q5S007 970-2527 G2019S): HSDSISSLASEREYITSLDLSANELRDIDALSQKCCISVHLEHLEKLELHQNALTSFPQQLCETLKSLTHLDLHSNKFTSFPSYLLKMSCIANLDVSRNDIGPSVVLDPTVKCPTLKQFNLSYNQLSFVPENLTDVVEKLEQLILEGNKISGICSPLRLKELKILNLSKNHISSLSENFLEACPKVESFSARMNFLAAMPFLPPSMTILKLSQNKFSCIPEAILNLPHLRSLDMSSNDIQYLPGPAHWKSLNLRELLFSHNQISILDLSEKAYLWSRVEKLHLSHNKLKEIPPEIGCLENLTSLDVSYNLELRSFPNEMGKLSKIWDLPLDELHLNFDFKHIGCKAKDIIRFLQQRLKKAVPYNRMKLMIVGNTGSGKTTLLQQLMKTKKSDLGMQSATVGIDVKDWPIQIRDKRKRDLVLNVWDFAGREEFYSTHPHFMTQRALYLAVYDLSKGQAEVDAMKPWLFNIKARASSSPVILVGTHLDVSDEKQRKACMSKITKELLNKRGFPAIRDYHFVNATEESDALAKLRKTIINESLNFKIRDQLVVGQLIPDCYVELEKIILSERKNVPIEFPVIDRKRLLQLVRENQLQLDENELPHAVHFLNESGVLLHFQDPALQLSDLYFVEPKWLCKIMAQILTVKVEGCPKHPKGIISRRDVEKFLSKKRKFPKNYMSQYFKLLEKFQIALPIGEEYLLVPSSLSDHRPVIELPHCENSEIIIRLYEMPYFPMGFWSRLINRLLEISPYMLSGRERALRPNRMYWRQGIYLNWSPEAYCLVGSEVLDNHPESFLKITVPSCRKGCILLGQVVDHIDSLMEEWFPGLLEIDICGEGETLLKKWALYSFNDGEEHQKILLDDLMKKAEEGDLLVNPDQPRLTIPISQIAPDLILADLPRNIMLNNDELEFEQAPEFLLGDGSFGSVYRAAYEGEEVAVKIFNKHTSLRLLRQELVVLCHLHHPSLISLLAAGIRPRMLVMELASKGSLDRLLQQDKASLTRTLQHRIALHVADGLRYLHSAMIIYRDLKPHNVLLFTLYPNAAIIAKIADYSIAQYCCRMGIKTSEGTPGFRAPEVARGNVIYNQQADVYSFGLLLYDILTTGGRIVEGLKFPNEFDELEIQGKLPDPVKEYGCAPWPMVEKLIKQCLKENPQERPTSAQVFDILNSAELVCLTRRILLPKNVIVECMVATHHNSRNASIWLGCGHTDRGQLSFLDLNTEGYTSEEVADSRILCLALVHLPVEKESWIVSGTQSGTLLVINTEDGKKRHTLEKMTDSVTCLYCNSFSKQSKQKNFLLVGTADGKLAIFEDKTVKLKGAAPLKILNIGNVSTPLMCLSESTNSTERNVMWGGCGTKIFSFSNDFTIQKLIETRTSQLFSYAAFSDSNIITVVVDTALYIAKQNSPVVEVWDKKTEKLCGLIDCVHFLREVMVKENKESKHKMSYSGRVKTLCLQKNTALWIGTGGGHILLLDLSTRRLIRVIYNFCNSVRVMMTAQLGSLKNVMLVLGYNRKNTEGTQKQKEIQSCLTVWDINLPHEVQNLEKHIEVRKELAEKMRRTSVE
# Sequence of JAK2 (O60674 whole entry): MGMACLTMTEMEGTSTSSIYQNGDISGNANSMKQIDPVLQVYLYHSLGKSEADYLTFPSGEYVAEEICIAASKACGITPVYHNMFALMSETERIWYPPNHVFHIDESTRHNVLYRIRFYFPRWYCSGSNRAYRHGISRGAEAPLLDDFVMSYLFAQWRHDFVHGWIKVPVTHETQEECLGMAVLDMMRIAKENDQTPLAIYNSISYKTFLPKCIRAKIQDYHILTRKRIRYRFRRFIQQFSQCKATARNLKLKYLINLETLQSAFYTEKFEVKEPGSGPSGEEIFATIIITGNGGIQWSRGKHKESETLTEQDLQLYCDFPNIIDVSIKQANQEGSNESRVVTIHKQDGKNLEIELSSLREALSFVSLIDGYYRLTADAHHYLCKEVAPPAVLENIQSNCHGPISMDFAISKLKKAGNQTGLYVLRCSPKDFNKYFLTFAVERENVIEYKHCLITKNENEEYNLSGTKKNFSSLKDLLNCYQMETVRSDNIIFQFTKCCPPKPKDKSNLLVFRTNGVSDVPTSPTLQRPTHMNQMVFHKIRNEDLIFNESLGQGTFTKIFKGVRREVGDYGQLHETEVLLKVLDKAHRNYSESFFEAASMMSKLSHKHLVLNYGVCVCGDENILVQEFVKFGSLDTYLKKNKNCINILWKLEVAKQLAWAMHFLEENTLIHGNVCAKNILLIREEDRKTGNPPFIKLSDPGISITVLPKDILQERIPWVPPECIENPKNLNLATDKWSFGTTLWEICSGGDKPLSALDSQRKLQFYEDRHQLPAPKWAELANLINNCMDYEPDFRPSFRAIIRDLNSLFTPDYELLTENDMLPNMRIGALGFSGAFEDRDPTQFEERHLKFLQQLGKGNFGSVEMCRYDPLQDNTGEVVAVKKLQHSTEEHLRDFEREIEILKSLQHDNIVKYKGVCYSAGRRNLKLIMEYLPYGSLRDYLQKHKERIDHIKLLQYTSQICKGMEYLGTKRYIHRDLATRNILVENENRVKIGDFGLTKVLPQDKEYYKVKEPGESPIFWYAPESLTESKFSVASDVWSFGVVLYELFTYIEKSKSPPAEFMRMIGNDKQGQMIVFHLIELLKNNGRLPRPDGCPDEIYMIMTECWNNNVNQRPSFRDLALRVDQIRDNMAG
Compound,IC50 (LRRK2 G2019S) [nM],IC50 (JAK2) [nM]
"4-(tetrahydro-2H-pyran-4-yl)-8-(trifluoromethyl)-5,11-dihydro-4H-3,4,7,10,11-pentaazadibenzo[cd,h]azulene [Example 89]",49,23000
"Cn1ncc2c1C(=O)N(C1CCOCC1)c1nccc3[nH]nc-2c13 [Example 67, 1-methyl-9-(tetrahydro-2H-pyran-4-yl)-5,9-dihydro-1,2,4,5,8,9-hexaazabenzo[cd]cyclopenta[h]azulen-10(1H)-one]",7,–
"4-ethyl-5,11-dihydro-4H-3,4,10,11-tetraazadibenzo[cd,h]azulene [Example 46]",49,1900
"2-(5,11-dihydro-4H-3,4,10,11-tetraazadibenzo[cd,h]azulen-4-yl)ethan-1-ol [Example 57]",260,–
c1ccc2c(c1)CN(C1CCCC1)c1nccc3[nH]nc-2c13 [Example 52],33,–
c1ccc(N2Cc3ccccc3-c3n[nH]c4ccnc2c34)cc1 [Example 53],33,–
"CC1Cc2n[nH]c3ccnc(c23)N(C2CCOCC2)C1 (stereo not drawn) [Example 30, 8-methyl-6-(tetrahydro-2H-pyran-4-yl)-6,7,8,9-tetrahydro-2H-1,2,5,6-tetraazabenzo[cd]azulene]",250,–
"4-isopropyl-4,11-dihydro-5H-3,4,10,11-tetraazadibenzo[cd,h]azulen-5-one [Example 35]",75,–
"CCn1cc2c(n1)CN(C1CCOCC1)c1nccc3[nH]nc-2c13 [Example 72, 2-ethyl-9-(tetrahydro-2H-pyran-4-yl)-2,5,9,10-tetrahydro-1,2,4,5,8,9-hexaazabenzo[cd]cyclopenta[h]azulene]",15,660
"4-cyclobutyl-5,11-dihydro-4H-3,4,10,11-tetraazadibenzo[cd,h]azulene [Example 51]",39,580
"CN1CCCc2n[nH]c3ccnc1c23 [Example 16, 6-methyl-6,7,8,9-tetrahydro-2H-1,2,5,6-tetraazabenzo[cd]azulene]",3000,–
CC(C)N1CCC(N2C(=O)c3ccccc3-c3n[nH]c4ccnc2c34)CC1 [Example 42],31,–
"CC(C)N1CCC(N2Cc3nn(C(C)C)cc3-c3n[nH]c4ccnc2c34)CC1 [Example 88, 2-isopropyl-9-(1-isopropylpiperidin-4-yl)-2,5,9,10-tetrahydro-1,2,4,5,8,9-hexaazabenzo[cd]cyclopenta[h]azulene]",31,5400
"O=C1c2n[nH]cc2-c2n[nH]c3ccnc(c23)N1C1CCOCC1 [Example 65, 9-(tetrahydro-2H-pyran-4-yl)-5,9-dihydro-1,2,4,5,8,9-hexaazabenzo[cd]cyclopenta[h]azulen-10(2H)-one]",4,–
"4-ethyl-4,11-dihydro-5H-3,4,10,11-tetraazadibenzo[cd,h]azulen-5-one [Example 32]",34,–
"CC(C)N1CCC(N2Cc3nn(C)cc3-c3n[nH]c4ccnc2c34)CC1 [Example 82, 9-(1-isopropylpiperidin-4-yl)-2-methyl-2,5,9,10-tetrahydro-1,2,4,5,8,9-hexaazabenzo[cd]cyclopenta[h]azulene]",39,–
"4-(sec-butyl)-5,11-dihydro-4H-3,4,10,11-tetraazadibenzo[cd,h]azulene [Example 50]",120,–
"CC(C)CN1CCCc2n[nH]c3ccnc1c23 [Example 20, 6-isobutyl-6,7,8,9-tetrahydro-2H-1,2,5,6-tetraazabenzo[cd]azulene]",450,–

Compound,IC50 (LRRK2 G2019S) [nM],IC50 (JAK2) [nM]
"CC(C)n1cc2c(n1)CN(C1CCN(C)CC1)c1nccc3[nH]nc-2c13 [Example 81, 2-isopropyl-9-(1-methylpiperidin-4-yl)-2,5,9,10-tetrahydro-1,2,4,5,8,9-hexaazabenzo[cd]cyclopenta[h]azulene]",40,4600
"4-isobutyl-5,11-dihydro-4H-3,4,10,11-tetraazadibenzo[cd,h]azulene [Example 49]",67,–
"CCN1CCN(C2CCOCC2)c2nccc3[nH]nc1c23 [Example 94, 9-ethyl-6-(tetrahydro-2H-pyran-4-yl)-6,7,8,9-tetrahydro-2H-1,2,5,6,9-pentaazabenzo[cd]azulene]",820,–
"CC(C)n1cc2c(n1)CN(C1CCOCC1)c1nccc3[nH]nc-2c13 [Example 74, 2-isopropyl-9-(tetrahydro-2H-pyran-4-yl)-2,5,9,10-tetrahydro-1,2,4,5,8,9-hexaazabenzo[cd]cyclopenta[h]azulene]",50,2400
"4-isopropyl-4,11-dihydro-5H-3,4,10,11-tetraazadibenzo[cd,h]azulen-5-one [Example 34]",41,–
"OCCN1CCCc2n[nH]c3ccnc1c23 [Example 28, 2-(2,7,8,9-tetrahydro-6H-1,2,5,6-tetraazabenzo[cd]azulen-6-yl)ethan-1-ol]",570,–
"CN1Cc2ccccc2-c2n[nH]c3ccnc1c23 [Example 45, 4-methyl-5,11-dihydro-4H-3,4,10,11-tetraazadibenzo[cd,h]azulene]",71,2100
"4-cyclopropyl-4,11-dihydro-5H-3,4,10,11-tetraazadibenzo[cd,h]azulen-5-one [Example 33]",30,–
"CC(C)N1CCCc2n[nH]c3ccnc1c23 [Example 19, 6-isopropyl-6,7,8,9-tetrahydro-2H-1,2,5,6-tetraazabenzo[cd]azulene]",230,3100
"Cn1cc2c(n1)C(=O)N(C1CCOCC1)c1nccc3[nH]nc-2c13 [Example 66, 2-methyl-9-(tetrahydro-2H-pyran-4-yl)-5,9-dihydro-1,2,4,5,8,9-hexaazabenzo[cd]cyclopenta[h]azulen-10(2H)-one]",26,–
"CCn1cc2c(n1)CN(C1CCN(C(C)C)CC1)c1nccc3[nH]nc-2c13 [Example 86, 2-ethyl-9-(1-isopropylpiperidin-4-yl)-2,5,9,10-tetrahydro-1,2,4,5,8,9-hexaazabenzo[cd]cyclopenta[h]azulene]",29,3000
"CN1CCC(N2CCCc3n[nH]c4ccnc2c34)CC1 [Example 26, 6-(1-methylpiperidin-4-yl)-6,7,8,9-tetrahydro-2H-1,2,5,6-tetraazabenzo[cd]azulene]",91,–
"4-cyclobutyl-4,11-dihydro-5H-3,4,10,11-tetraazadibenzo[cd,h]azulen-5-one [Example 37]",20,–
"Cn1cc2c(n1)CN(C1CCOCC1)c1nccc3[nH]nc-2c13 [Example 70, 2-methyl-9-(tetrahydro-2H-pyran-4-yl)-2,5,9,10-tetrahydro-1,2,4,5,8,9-hexaazabenzo[cd]cyclopenta[h]azulene]",23,–
CC(C)N1CCC(N2Cc3ccccc3-c3n[nH]c4ccnc2c34)CC1 [Example 56],58,4800
"4-cyclopropyl-5,11-dihydro-4H-3,4,10,11-tetraazadibenzo[cd,h]azulene [Example 47]",54,2200
"4-isopropyl-5,11-dihydro-4H-3,4,10,11-tetraazadibenzo[cd,h]azulene [Example 48]",68,550
